Measured values: article PMC4240011 (Drug delivery and translational research, 2014)

What was measured:
[1] = Equilibrium solubility in SMEDDS formulation; assay type: physicochemical; details: in SMEDDS (Cremophor EL, Carbitol, Captex 355); room temperature overnight
[2] = cited from earlier work
[3] = cited from earlier work; remark: listed apart in the source
[4] = Oral pharmacokinetic studies in mice; assay type: in vivo, mouse; details: silibinin 100 mg/kg with curcumin 100 mg/kg in SMEDDS
[5] = system: UGT (curcumin glucuronidation, mouse liver microsomes); assay: Inhibition of curcumin glucuronidation in mouse liver microsomes; assay type: biochemical; details: inhibitor up to 10 μM, curcumin 1 μM

## COc1cc(/C=C/C(=O)CC(=O)/C=C/c2ccc(O)c(OC)c2)ccc1O [Curcumin]
[1]
  Solubility: 51.5 mg/g
[2]
  bioavailability: < 2%
[3]
  solubility in water: ~ 2 ng/mL

## COc1cc(C2Oc3cc([C@H]4Oc5cc(O)cc(O)c5C(=O)[C@@H]4O)ccc3OC2CO)ccc1O (stereo partly shown) [Silibinin, silibinin]
[4]
  time of peak silibinin plasma concentration: 30 min
[1]
  Solubility: 32.8 mg/g

## O=c1c(O)c(-c2ccc(O)c(O)c2)oc2cc(O)cc(O)c12 [Quercetin, quercetin]
[1]
  Solubility: 34.4 mg/g

## O=C(O[C@@H]1Cc2c(O)cc(O)cc2O[C@@H]1c1cc(O)c(O)c(O)c1)c1cc(O)c(O)c(O)c1 [EGCG, epigallocatechin gallate]
[5]
  effect on curcumin glucuronidation / UGT activity (in words): slightly increased UGT activity

## O=C(/C=C/C=C/c1ccc2c(c1)OCO2)N1CCCCC1 [Piperine, piperine]
[1]
  Solubility: 45.2 mg/g
[5]
  effect on curcumin glucuronidation / UGT activity (in words): no inhibitory effect

## O=C(O)c1ccccc1O [salicylic acid]
[5]
  effect on curcumin glucuronidation / UGT activity (in words): slightly increased UGT activity
